Values joined by “and” are separate entries in the source; they are usually repeats but may differ in a detail not shown here. Identical values can stand only once.
Tested on: 454973-116-R2-J3-PDC spheroids, percent test/control viability
Test: Anticancer human tumor 454973-116-R2-J3-PDC patient-derived pancreatic carcinoma cell line growth inhibition [CLK]
Conditions: spheroids with HUVEC and MSC; for viability, T/C: stronger effect = lower value
Procedure, shortened: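 Multi-cell-type spheroids combined patient-derived tumor cells with HUVEC endothelial cells and human mesenchymal stem cells. Paired agents were dosed in half-log steps down from about clinical Cmax, or from 10 microM where Cmax was unknown.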

[1] = curve of first compound, second compound 0.0316 µM
[2] = curve of first compound, second compound 0.1 µM
[3] = curve of first compound, second compound 0.316 µM
[4] = curve of first compound, second compound 1 µM
[5] = curve of first compound, second compound 3.16 µM
[6] = curve of first compound, second compound 10 µM
[7] = second compound 0.0316 µM, first compound 0.00316 µM
[8] = second compound 0.0316 µM, first compound 0.01 µM
[9] = second compound 0.0316 µM, first compound 0.0316 µM
[10] = second compound 0.0316 µM, first compound 0.1 µM
[11] = second compound 0.0316 µM, first compound 0.316 µM
[12] = second compound 0.0316 µM, first compound 1 µM
[13] = second compound 0.1 µM, first compound 0.00316 µM
[14] = second compound 0.1 µM, first compound 0.01 µM
[15] = second compound 0.1 µM, first compound 0.0316 µM
[16] = second compound 0.1 µM, first compound 0.1 µM
[17] = second compound 0.1 µM, first compound 0.316 µM
[18] = second compound 0.1 µM, first compound 1 µM
[19] = second compound 0.316 µM, first compound 0.00316 µM
[20] = second compound 0.316 µM, first compound 0.01 µM
[21] = second compound 0.316 µM, first compound 0.0316 µM
[22] = second compound 0.316 µM, first compound 0.1 µM
[23] = second compound 0.316 µM, first compound 0.316 µM
[24] = second compound 0.316 µM, first compound 1 µM
[25] = second compound 1 µM, first compound 0.00316 µM
[26] = second compound 1 µM, first compound 0.01 µM
[27] = second compound 1 µM, first compound 0.0316 µM
[28] = second compound 1 µM, first compound 0.1 µM
[29] = second compound 1 µM, first compound 0.316 µM
[30] = second compound 1 µM, first compound 1 µM
[31] = second compound 3.16 µM, first compound 0.00316 µM
[32] = second compound 3.16 µM, first compound 0.01 µM
[33] = second compound 3.16 µM, first compound 0.0316 µM
[34] = second compound 3.16 µM, first compound 0.1 µM
[35] = second compound 3.16 µM, first compound 0.316 µM
[36] = second compound 3.16 µM, first compound 1 µM
[37] = second compound 10 µM, first compound 0.00316 µM
[38] = second compound 10 µM, first compound 0.01 µM
[39] = second compound 10 µM, first compound 0.0316 µM
[40] = second compound 10 µM, first compound 0.1 µM
[41] = second compound 10 µM, first compound 0.316 µM
[42] = second compound 10 µM, first compound 1 µM
[43] = second compound 0.0316 µM, first compound 3.16 µM
[44] = second compound 0.0316 µM, first compound 10 µM
[45] = second compound 0.1 µM, first compound 3.16 µM
[46] = second compound 0.1 µM, first compound 10 µM
[47] = second compound 0.316 µM, first compound 3.16 µM
[48] = second compound 0.316 µM, first compound 10 µM
[49] = second compound 1 µM, first compound 3.16 µM
[50] = second compound 1 µM, first compound 10 µM
[51] = second compound 3.16 µM, first compound 3.16 µM
[52] = second compound 3.16 µM, first compound 10 µM
[53] = second compound 10 µM, first compound 3.16 µM
[54] = second compound 10 µM, first compound 10 µM
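Also: spheroids exposed to compounds for 7 days before readout.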

## CCN1CCN(Cc2ccc(Nc3ncc(F)c(-c4cc(F)c5nc(C)n(C(C)C)c5c4)n3)nc2)CC1 + CNC(=O)c1ccc(Nc2nc(OC3CCCC3)c3c(-c4ccc5nc(C)oc5c4)c[nH]c3n2)c(OC)c1
[1]
  IC50: > 1000 nM
[2]
  IC50: > 1000 nM
[3]
  IC50: < 3.16 nM
[4]
  IC50: < 3.16 nM
[5]
  IC50: < 3.16 nM
[6]
  IC50: < 3.16 nM
[7]
  viability, T/C: 103%
[8]
  viability, T/C: 90.4%
[9]
  viability, T/C: 82.8%
[10]
  viability, T/C: 69.1%
[11]
  viability, T/C: 67.2%
[12]
  viability, T/C: 60.4%
[13]
  viability, T/C: 96.8%
[14]
  viability, T/C: 84.7%
[15]
  viability, T/C: 79.2%
[16]
  viability, T/C: 67.2%
[17]
  viability, T/C: 63.4%
[18]
  viability, T/C: 56.2%
[19]
  viability, T/C: 44.8%
[20]
  viability, T/C: 44.4%
[21]
  viability, T/C: 54.5%
[22]
  viability, T/C: 55.6%
[23]
  viability, T/C: 52.5%
[24]
  viability, T/C: 63.6%
[25]
  viability, T/C: 34.4%
[26]
  viability, T/C: 34.1%
[27]
  viability, T/C: 39%
[28]
  viability, T/C: 43%
[29]
  viability, T/C: 43.3%
[30]
  viability, T/C: 47%
[31]
  viability, T/C: 30.6%
[32]
  viability, T/C: 35.5%
[33]
  viability, T/C: 37.2%
[34]
  viability, T/C: 39.1%
[35]
  viability, T/C: 38.5%
[36]
  viability, T/C: 46.2%
[37]
  viability, T/C: 27.5%
[38]
  viability, T/C: 27%
[39]
  viability, T/C: 33.5%
[40]
  viability, T/C: 37.8%
[41]
  viability, T/C: 41.8%
[42]
  viability, T/C: 47.3%

## CC(CO)NC(=O)c1cc(-c2ccc(Cl)cc2)nn(-c2cnn(C)c2)c1=O (configuration not stated)
Compound 0.0316 µM
  viability, T/C: 112% and 99.4%
Compound 0.1 µM
  viability, T/C: 106% and 92.4%
Compound 0.316 µM
  viability, T/C: 114% and 111%
Compound 1 µM
  viability, T/C: 99.3% and 107%
Compound 3.16 µM
  viability, T/C: 103% and 109%
Compound 10 µM
  viability, T/C: 71.3% and 79%
Curve of compound
  IC50: > 10000 nM

## CC1COCCN1c1cc(C2(S(C)(=N)=O)CC2)nc(-c2ccnc3[nH]ccc23)n1 (configuration not stated) + CNC(=O)c1ccc(Nc2nc(OC3CCCC3)c3c(-c4ccc5nc(C)oc5c4)c[nH]c3n2)c(OC)c1
[1]
  IC50: 6280 nM
[2]
  IC50: 7330 nM
[3]
  IC50: < 31.6 nM
[4]
  IC50: < 31.6 nM
[5]
  IC50: < 31.6 nM
[6]
  IC50: < 31.6 nM
[9]
  viability, T/C: 96.7%
[10]
  viability, T/C: 103%
[11]
  viability, T/C: 97.8%
[12]
  viability, T/C: 101%
[43]
  viability, T/C: 73.3%
[44]
  viability, T/C: 34.2%
[15]
  viability, T/C: 103%
[16]
  viability, T/C: 97.5%
[17]
  viability, T/C: 94.7%
[18]
  viability, T/C: 93.6%
[45]
  viability, T/C: 84.4%
[46]
  viability, T/C: 37.4%
[21]
  viability, T/C: 37%
[22]
  viability, T/C: 43.9%
[23]
  viability, T/C: 45.1%
[24]
  viability, T/C: 40.1%
[47]
  viability, T/C: 48.3%
[48]
  viability, T/C: 29.5%
[27]
  viability, T/C: 27.9%
[28]
  viability, T/C: 30.9%
[29]
  viability, T/C: 30.5%
[30]
  viability, T/C: 27.3%
[49]
  viability, T/C: 25.3%
[50]
  viability, T/C: 15.8%
[33]
  viability, T/C: 30.4%
[34]
  viability, T/C: 24.3%
[35]
  viability, T/C: 28.9%
[36]
  viability, T/C: 28.1%
[51]
  viability, T/C: 19.3%
[52]
  viability, T/C: 12.3%
[39]
  viability, T/C: 29.8%
[40]
  viability, T/C: 27.3%
[41]
  viability, T/C: 27.5%
[42]
  viability, T/C: 25.5%
[53]
  viability, T/C: 17.4%
[54]
  viability, T/C: 10.3%

## CC1COCCN1c1cc(C2(S(C)(=N)=O)CC2)nc(-c2ccnc3[nH]ccc23)n1 (configuration not stated)
Compound 0.0316 µM
  viability, T/C: 109% and 101%
Compound 0.1 µM
  viability, T/C: 109% and 97.7%
Compound 0.316 µM
  viability, T/C: 104% and 102%
Compound 1 µM
  viability, T/C: 101% and 98%
Compound 3.16 µM
  viability, T/C: 91.1% and 87.8%
Compound 10 µM
  viability, T/C: 38.4% and 36.1%
Curve of compound
  IC50: 7770 nM and 7340 nM

## COc1c(OCCCN2CCOCC2)ccc2c3n(c(=NC(=O)c4cnc(N)nc4)nc12)CCN3 + CNC(=O)c1ccc(Nc2nc(OC3CCCC3)c3c(-c4ccc5nc(C)oc5c4)c[nH]c3n2)c(OC)c1
[1]
  IC50: 72.2 nM
[2]
  IC50: 66.9 nM
[3]
  IC50: 17.9 nM
[4]
  IC50: < 3.16 nM
[5]
  IC50: < 3.16 nM
[6]
  IC50: < 3.16 nM
[7]
  viability, T/C: 99.8%
[8]
  viability, T/C: 93%
[9]
  viability, T/C: 71.3%
[10]
  viability, T/C: 39%
[11]
  viability, T/C: 24.4%
[12]
  viability, T/C: 8.47%
[13]
  viability, T/C: 96.2%
[14]
  viability, T/C: 79.6%
[15]
  viability, T/C: 70.5%
[16]
  viability, T/C: 37.5%
[17]
  viability, T/C: 24.2%
[18]
  viability, T/C: 8.81%
[19]
  viability, T/C: 56.4%
[20]
  viability, T/C: 54.7%
[21]
  viability, T/C: 47%
[22]
  viability, T/C: 26.1%
[23]
  viability, T/C: 17.5%
[24]
  viability, T/C: 7.41%
[25]
  viability, T/C: 34.2%
[26]
  viability, T/C: 30.5%
[27]
  viability, T/C: 22.2%
[28]
  viability, T/C: 13.1%
[29]
  viability, T/C: 8.12%
[30]
  viability, T/C: 4.63%
[31]
  viability, T/C: 25.7%
[32]
  viability, T/C: 24.6%
[33]
  viability, T/C: 21.1%
[34]
  viability, T/C: 14.8%
[35]
  viability, T/C: 7.11%
[36]
  viability, T/C: 5.46%
[37]
  viability, T/C: 24.2%
[38]
  viability, T/C: 22%
[39]
  viability, T/C: 17.8%
[40]
  viability, T/C: 13.3%
[41]
  viability, T/C: 8.89%
[42]
  viability, T/C: 3.02%

## COC1C=CCC(C)C(C)S(=O)(=O)NC(=O)c2ccc3c(c2)N(CC2CCC21)CC1(CCCc2cc(Cl)ccc21)CO3 (configuration not stated) + CNC(=O)c1ccc(Nc2nc(OC3CCCC3)c3c(-c4ccc5nc(C)oc5c4)c[nH]c3n2)c(OC)c1
[1]
  IC50: 5340 nM
[2]
  IC50: 4570 nM
[3]
  IC50: < 31.6 nM
[4]
  IC50: < 31.6 nM
[5]
  IC50: < 31.6 nM
[6]
  IC50: < 31.6 nM
[9]
  viability, T/C: 99.4%
[10]
  viability, T/C: 104%
[11]
  viability, T/C: 93.9%
[12]
  viability, T/C: 95%
[43]
  viability, T/C: 86.8%
[44]
  viability, T/C: 6.26%
[15]
  viability, T/C: 91.8%
[16]
  viability, T/C: 98.8%
[17]
  viability, T/C: 92.4%
[18]
  viability, T/C: 84.3%
[45]
  viability, T/C: 70.9%
[46]
  viability, T/C: 8.61%
[21]
  viability, T/C: 48.2%
[22]
  viability, T/C: 53.7%
[23]
  viability, T/C: 42%
[24]
  viability, T/C: 46.1%
[47]
  viability, T/C: 46.3%
[48]
  viability, T/C: 11.5%
[27]
  viability, T/C: 30.2%
[28]
  viability, T/C: 23.3%
[29]
  viability, T/C: 14.2%
[30]
  viability, T/C: 14.4%
[49]
  viability, T/C: 17.6%
[50]
  viability, T/C: 14.9%
[33]
  viability, T/C: 24.1%
[34]
  viability, T/C: 17.4%
[35]
  viability, T/C: 11.2%
[36]
  viability, T/C: 11.9%
[51]
  viability, T/C: 13.9%
[52]
  viability, T/C: 11.8%
[39]
  viability, T/C: 23.7%
[40]
  viability, T/C: 21.5%
[41]
  viability, T/C: 12.1%
[42]
  viability, T/C: 9.9%
[53]
  viability, T/C: 8.86%
[54]
  viability, T/C: 9.25%

— PubChem BioAssay AID2060618 (Molecular Pharmacology Branch, DTP, NCI, 2025)
